Patent publication US20240425478A1, “CYCLOPENTYLPYRAZOLE CDK2 INHIBITORS” (Genentech, Inc., priority 2021, published 2024)
Read-outs that look alike come from different tables or passages of the source.

What was measured:
[1] = biological target: T1, Cyclin Dependent Kinase 1/Cyclin A2 (CDK1-cycA2) (Homo sapiens, UniProt P06493); assay: CDK1-cycA2 TR-FRET (Lance) enzyme assay; type: biochemical; details: for Ki: Table O, enzymatic assay; for FS CDK1/CDK2: fold selectivity, enzymatic Ki ratio
T1 construct: purchased ProQinase 0134-0054-1
T1 sequence (P06493 whole entry): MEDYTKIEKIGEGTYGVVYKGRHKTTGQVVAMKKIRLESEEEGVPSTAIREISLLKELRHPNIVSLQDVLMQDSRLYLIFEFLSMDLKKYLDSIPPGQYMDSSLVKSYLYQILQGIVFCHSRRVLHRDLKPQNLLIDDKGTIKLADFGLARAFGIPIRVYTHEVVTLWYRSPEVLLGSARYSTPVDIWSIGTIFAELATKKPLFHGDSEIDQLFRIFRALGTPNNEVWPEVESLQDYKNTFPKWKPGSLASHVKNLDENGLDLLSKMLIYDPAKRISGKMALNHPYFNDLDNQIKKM
T1 sequence (P20248 whole entry partner): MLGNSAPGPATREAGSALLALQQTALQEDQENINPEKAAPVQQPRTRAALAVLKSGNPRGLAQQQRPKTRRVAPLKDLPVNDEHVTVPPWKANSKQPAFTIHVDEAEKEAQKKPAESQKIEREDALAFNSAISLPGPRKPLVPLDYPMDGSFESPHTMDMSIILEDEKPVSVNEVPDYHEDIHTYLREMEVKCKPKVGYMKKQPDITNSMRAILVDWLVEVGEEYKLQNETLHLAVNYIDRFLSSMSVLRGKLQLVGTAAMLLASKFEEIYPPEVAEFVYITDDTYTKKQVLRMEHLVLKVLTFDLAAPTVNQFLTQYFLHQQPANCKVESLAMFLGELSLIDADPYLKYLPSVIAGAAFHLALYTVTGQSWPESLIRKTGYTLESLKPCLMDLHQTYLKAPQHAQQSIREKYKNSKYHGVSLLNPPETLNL
Method in brief: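 Human CDK1/cyclin A2 pre-incubated 30 min with compound dose responses in 50 mM HEPES pH 7.5, 10 mM MgCl2, 2 mM TCEP, 0.05% BGG, 0.01% Brij 35. Reaction quenched with EDTA (15 mM final); TR-FRET readout using Eu-anti-phospho-4E-BP1, acceptor/donor ratio. Inhibition constants from Morrison equation.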

[2] = biological target: T2, Cyclin Dependent Kinase 2/Cyclin E1 (CDK2-cycE1) (Homo sapiens, UniProt P24941); assay: CDK2-cycE1 TR-FRET (LANCE) enzyme assay; type: biochemical; details: for Ki: enzymatic assay, read-out: CDK2 Ki; for FS CDK1/CDK2 / FS CDK4/CDK2: fold selectivity; for FS CDK1/CDK2: enzymatic CDK1 Ki over CDK2 Ki; for FS CDK4/CDK2: enzymatic CDK4 Ki over CDK2 Ki; for CDK2 Ki fold change in potency versus Comparator D / CDK2 Ki fold change in potency versus Comparator E: in brackets after CDK2 Ki
T2 construct: purchased ProQinase 0050-0055-1
Method in brief: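 Compound dose responses pre-incubated 30 min with CDK2-cycE1 in 50 mM HEPES pH 7.5, 10 mM MgCl2, 2 mM TCEP, 0.05% BGG, 0.01% Brij 35. Reaction quenched with EDTA (15 mM final), phospho-MBP detected by Eu-anti-phospho-MBP TR-FRET (acceptor/donor ratio). Inhibition constants from Morrison equation.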

[3] = biological target: T3, Cyclin Dependent Kinase 4/Cyclin D3 (CDK4-cycD3) (Homo sapiens, UniProt P11802); assay: CDK4-cycD3 TR-FRET (LANCE) enzyme assay; type: biochemical; details: for Ki: Table O, enzymatic assay; for FS CDK4/CDK2: fold selectivity, enzymatic Ki ratio
T3 construct: purchased Carna Biosciences 04-105
T3 sequence (P11802 whole entry): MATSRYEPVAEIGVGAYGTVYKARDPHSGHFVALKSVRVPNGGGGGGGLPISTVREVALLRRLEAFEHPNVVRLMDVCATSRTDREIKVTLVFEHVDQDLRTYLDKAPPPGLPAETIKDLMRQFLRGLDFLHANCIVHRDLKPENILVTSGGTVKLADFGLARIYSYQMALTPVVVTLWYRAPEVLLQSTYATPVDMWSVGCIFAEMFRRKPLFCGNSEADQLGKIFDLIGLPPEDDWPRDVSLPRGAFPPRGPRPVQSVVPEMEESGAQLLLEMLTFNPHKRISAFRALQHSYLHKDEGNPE
T3 sequence (P30281 whole entry partner): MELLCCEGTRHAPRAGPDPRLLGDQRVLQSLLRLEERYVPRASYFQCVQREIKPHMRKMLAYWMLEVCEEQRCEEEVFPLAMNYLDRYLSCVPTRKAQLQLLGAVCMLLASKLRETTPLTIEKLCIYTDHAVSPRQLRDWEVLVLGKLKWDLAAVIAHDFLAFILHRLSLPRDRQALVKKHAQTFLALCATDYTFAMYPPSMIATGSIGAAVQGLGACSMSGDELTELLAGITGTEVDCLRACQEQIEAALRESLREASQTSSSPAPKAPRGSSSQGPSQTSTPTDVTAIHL
Method in brief: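 Compound dose responses pre-incubated 30 min with enzyme mix in 50 mM HEPES pH 7.5, 10 mM MgCl2, 2 mM TCEP, 0.05% BGG, 0.01% Brij 35. Reaction quenched with EDTA (15 mM final); Eu-anti-phospho-4E-BP1 TR-FRET detection, acceptor/donor ratio. Ki derived by Morrison equation.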

[4] = test system: OVISE (JCRB1043, CCNE1-amplified); assay: OVISE EdU incorporation cell proliferation assay (CDK2-dependent); type: cell-based; details: for IC50 / FS SKOV-3/OVISE / FS p-H3/OVISE: Table O; for IC50: cellular assay, read-out: CDK2 OVISE IC50; for FS SKOV-3/OVISE / FS p-H3/OVISE: fold selectivity; for FS SKOV-3/OVISE: cellular SKOV-3 IC50 over OVISE IC50; for FS p-H3/OVISE: cellular p-H3 IC50 over OVISE IC50; for CDK2 OVISE IC50 fold change in potency versus Comparator D: Table R; for CDK2 OVISE IC50 fold change in potency versus Comparator D / CDK2 OVISE IC50 fold change in potency versus Comparator E: in brackets after OVISE IC50; for CDK2 OVISE IC50 fold change in potency versus Comparator E: Table S
Method in brief: (§1)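 Cells in RPMI/10% FBS dosed with compound (0.5% DMSO final) for 16 h at 37 °C, 5% CO2, then EdU 0.5 μM final for 8 h before fixation and imaging. IC50 from 4-parameter logistic fit of EdU-positive cell fraction versus dose.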

SKOV-3 (ATCC HTB-77) = assay: SKOV-3 EdU incorporation cell proliferation assay (CDK4/6-dependent); type: cell-based; details: for IC50: Homo sapiens, SK-OV-3, Table O, cellular assay, read-out: CDK4/6 SKOV-3 IC50; for selectivity for CDK2 over CDK4 compared with Comparator E: SKOV-3/OVISE fold-selectivity cellular assay data; for FS SKOV-3/OVISE: fold selectivity, cellular IC50 ratio
Method in brief: as §1

HCT116 cells = assay: p-H3 HCT-116 mitotic release cell proliferation assay (cellular CDK1); type: cell-based; details: Homo sapiens, HCT-116; Table O, cellular assay; read-out: CDK1 p-H3 IC50
Method in brief: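 HCT116 cells arrested 16 h with 500 nM nocodazole, then exposed to compound for 4 h at 37 °C (0.1% DMSO). Lysates read by HTRF/FRET with donor and acceptor phospho-Histone H3 (Ser10) antibodies, ≥2 h at room temperature; CDK1 inhibition seen as loss of p-H3 on mitotic release.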

CC(C)(C)NC(=O)O[C@@H]1CC[C@H](c2cc(Nc3ccncc3)n[nH]2)C1 [Example 4H, (1R,3S)-3-(3-(pyridin-4-ylamino)-1H-pyrazol-5-yl)cyclopentyl tert-butylcarbamate]
Ki [1]: 180 nM | FS CDK1/CDK2 increased over Comparator D, (+) sign ([1]; Table R): (+) | FS CDK1/CDK2 ([1]; Table R): 90 | FS CDK1/CDK2 increased over Comparator E, (+) sign ([1]; Table S): (+) | FS CDK1/CDK2 ([1]; Table S): 90 | Ki ([2]; Table O): 2 nM | FS CDK1/CDK2 ([2]; Table O): 90 | FS CDK4/CDK2 ([2]; Table O): 55 | Ki ([2]; Table R): 2 nM | CDK2 Ki fold change in potency versus Comparator D ([2]; Table R): 1.4 fold | Ki ([2]; Table S): 2 nM | CDK2 Ki fold change in potency versus Comparator E ([2]; Table S): 0.3 fold | Ki [3]: 110 nM | FS CDK4/CDK2 increased over Comparator D, (+) sign ([3]; Table R): (+) | FS CDK4/CDK2 ([3]; Table R): 55 | FS CDK4/CDK2 increased over Comparator E, (+) sign ([3]; Table S): (+) | FS CDK4/CDK2 ([3]; Table S): 55 | CDK2 cell potency compared with Comparator E ([4]; CDK2 OVISE cellular assay data): more potent CDK2 cell inhibitors compared to Comparator E | IC50 [4]: 38 nM | FS SKOV-3/OVISE [4]: 25 | FS p-H3/OVISE [4]: 1.4 | CDK2 OVISE IC50 fold change in potency versus Comparator D [4]: 100 fold | CDK2 OVISE IC50 fold change in potency versus Comparator E [4]: 4.4 fold | IC50 (SKOV-3 (ATCC HTB-77)): 950 nM | selectivity for CDK2 over CDK4 compared with Comparator E (SKOV-3 (ATCC HTB-77)): increase in selectivity for CDK2 over CDK4 | FS SKOV-3/OVISE increased over Comparator D, (+) sign (SKOV-3 (ATCC HTB-77); Table R): (+) | FS SKOV-3/OVISE (SKOV-3 (ATCC HTB-77); Table R): 25 | FS SKOV-3/OVISE increased over Comparator E, (+) sign (SKOV-3 (ATCC HTB-77); Table S): (+) | FS SKOV-3/OVISE (SKOV-3 (ATCC HTB-77); Table S): 25 | IC50 (HCT116 cells): 54 nM

CC(C)(C)NC(=O)O[C@@H]1CC[C@H](c2cc(Nc3cccnn3)n[nH]2)C1 [Example 4I, (1R,3S)-3-(3-(pyridazin-3-ylamino)-1H-pyrazol-5-yl)cyclopentyl tert-butylcarbamate]
Ki [1]: 45 nM | FS CDK1/CDK2 ([1]; Table R): 18 | FS CDK1/CDK2 ([1]; Table S): 18 | Ki ([2]; Table O): 2.5 nM | FS CDK1/CDK2 ([2]; Table O): 18 | FS CDK4/CDK2 ([2]; Table O): 13 | Ki ([2]; Table R): 2.5 nM | CDK2 Ki fold change in potency versus Comparator D ([2]; Table R): 1.1 fold | Ki ([2]; Table S): 2.5 nM | CDK2 Ki fold change in potency versus Comparator E ([2]; Table S): 0.2 fold | Ki [3]: 33 nM | FS CDK4/CDK2 increased over Comparator D, (+) sign ([3]; Table R): (+) | FS CDK4/CDK2 ([3]; Table R): 13 | FS CDK4/CDK2 ([3]; Table S): 13 | IC50 [4]: 240 nM | FS SKOV-3/OVISE [4]: 20 | FS p-H3/OVISE [4]: 0.63 | CDK2 OVISE IC50 fold change in potency versus Comparator D [4]: 16 fold | CDK2 OVISE IC50 fold change in potency versus Comparator E [4]: 0.7 fold | IC50 (SKOV-3 (ATCC HTB-77)): 4900 nM | selectivity for CDK2 over CDK4 compared with Comparator E (SKOV-3 (ATCC HTB-77)): increase in selectivity for CDK2 over CDK4 | FS SKOV-3/OVISE increased over Comparator D, (+) sign (SKOV-3 (ATCC HTB-77); Table R): (+) | FS SKOV-3/OVISE (SKOV-3 (ATCC HTB-77); Table R): 20 | FS SKOV-3/OVISE increased over Comparator E, (+) sign (SKOV-3 (ATCC HTB-77); Table S): (+) | FS SKOV-3/OVISE (SKOV-3 (ATCC HTB-77); Table S): 20 | IC50 (HCT116 cells): 150 nM
